Source: ChEMBL document CHEMBL5614413, “Design, synthesis and biological evaluation of amphiphilic benzopyran derivatives as potent antibacterial agents against multidrug-resistant bacteria” (Eur J Med Chem, 2024)
Converted amounts (≈) assume the structure as drawn. The source made the active and inactive calls. The rule behind the calls is not given here.

Legend:
Cell membrane [1] = assay: Induction of cytoplasmic membrane depolarization in methicillin-resistant Staphylococcus aureus ATCC 43300 assessed as increase in fluorescence intensity by DiSC3(5) dye-based fluorescence assay; type: cell membranes
Staphylococcus aureus [2] = assay: (§1) Antibacterial activity against methicillin-resistant Staphylococcus aureus ATCC 43300 infected in sepsis mouse model assessed as reduction in bacterial load in spleen at 5 mg/kg pre-infected with bacteria for 1 hrs followed by continuous compound administration at 12 hrs intervals for 2 days (reference value: 7.45 log10CFU/g); type: functional; settings: time 2 day
Staphylococcus aureus [3] = assay: as §1, with “blood” for “spleen”, “10” for “5”, “3.69 log10CFU/ml)” for “7.45 log10CFU/g)”; type: functional; settings: time 2 day
Staphylococcus aureus [4] = assay: (§2) Antibacterial activity against methicillin-resistant Staphylococcus aureus ATCC 43300 infected in sepsis mouse model assessed as reduction in number of surviving bacterial colonies in spleen at 10 mg/kg pre-infected with bacteria for 1 hrs followed by continuous compound administration at 12 hrs intervals for 2 days relative to control; type: functional; settings: time 2 day
Staphylococcus aureus [5] = assay: as §1, with “at 10” for “at 5”; type: functional; settings: time 2 day
Staphylococcus aureus [6] = assay: Selectivity ratio of MBC for bactericidal activity against methicillin-resistant Staphylococcus aureus ATCC 43300 in presence of 50% human serum to MBC for bactericidal activity against methicillin-resistant Staphylococcus aureus ATCC 43300; type: functional
Staphylococcus aureus [7] = assay: Inhibition of biofilm formation in methicillin-resistant Staphylococcus aureus ATCC 43300 at 8 microg/ml relative to control; type: functional
Staphylococcus aureus [8] = assay: as §2, with “kidney” for “spleen”; type: functional; settings: time 2 day
Staphylococcus aureus [9] = assay: as §1, with “kidney” for “spleen”, “6.75” for “7.45”; type: functional; settings: time 2 day
Cell membrane [10] = assay: Disruption of cell membrane integrity in methicillin-resistant Staphylococcus aureus ATCC 43300 assessed as appearance of red fluorescence by DAPI/PI staning based microscopic analysis; type: cell membranes
Staphylococcus aureus [11] = assay: Bactericidal activity against methicillin-resistant Staphylococcus aureus ATCC 43300 assessed as bacterial killing at 16 microg/ml measured after 8 hrs by time-kill kinetics analysis relative to control; type: functional; settings: dose 16 µg/ml
Staphylococcus aureus [12] = assay: Disruption of preformed biofilm in methicillin-resistant Staphylococcus aureus ATCC 43300 assessed as eradication of biofilm at 8 microg/ml by crystal violet staining based analysis relative to control; type: functional; settings: dose 8 µg/ml
Bacillus subtilis = assay: Antibacterial activity against penicillin-susceptible Bacillus subtilis ATCC 9372; type: functional
Cell membrane [13] = assay: Induction of cell membrane disruption in methicillin-resistant Staphylococcus aureus ATCC 43300 assessed as increase in DNA leakage; type: cell membranes
Staphylococcus aureus [14] = assay: Bacteriostatic activity against methicillin-resistant Staphylococcus aureus ATCC 43300 assessed as inhibition of bacterial growth at 2 times of MIC measured after 24 hrs by time-kill kinetic analysis; type: functional, organism-based
[15] = Hemolytic activity in sheep RBC; type: toxicity, cell-based, Ovis aries, Erythrocyte; settings: sheep red blood cells (erythrocytes)
Staphylococcus aureus [16] = assay: Induction of ROS production in methicillin-resistant Staphylococcus aureus ATCC 43300 assessed as fold increase in ROS level at 32 microg/ml by DCFH-DA staining based analysis; settings: dose 32 µg/ml
Staphylococcus aureus [17] = assay: Bactericidal activity against methicillin-resistant Staphylococcus aureus ATCC 43300 assessed as log reduction in bacterial growth at 16 microg/ml measured after 4 hrs by time-kill kinetics analysis; type: functional; settings: dose 16 µg/ml
Staphylococcus aureus [18] = assay: Bactericidal activity against methicillin-resistant Staphylococcus aureus ATCC 43300 assessed as bacterial killing at 16 microg/ml measured after 4 hrs by time-kill kinetics analysis relative to control; type: functional; settings: dose 16 µg/ml
Acinetobacter baumannii = assay: Antibacterial activity against Acinetobacter baumannii ATCC 19606; type: functional
Staphylococcus aureus [19] = assay: Selectivity ratio of MBC for bactericidal activity against methicillin-resistant Staphylococcus aureus ATCC 43300 preincubated with 50% human plasma upto 6 hrs to MBC for bactericidal activity against methicillin-resistant Staphylococcus aureus ATCC 43300; type: functional
Staphylococcus aureus [20] = assay: Inhibition of biofilm formation in methicillin-resistant Staphylococcus aureus ATCC 43300 at 2 microg/ml relative to control; type: functional
Staphylococcus aureus [21] = assay: Antibacterial activity against methicillin-resistant Staphylococcus aureus ATCC 43300 infected in sepsis mouse model assessed as reduction in pathological damages in spleen at 5 to 10 mg/kg pre-infected with bacteria for 1 hrs followed by continuous compound administration at 12 hrs intervals for 2 days by H and E staining based analysis; type: functional, organism-based; settings: dose 5-10 mg/kg, time 2.0 day
Staphylococcus aureus [22] = assay: as §1, with “liver” for “spleen”, “10” for “5”, “7.16” for “7.45”; type: functional; settings: time 2 day
Escherichia coli = assay: Antibacterial activity against penicillin-susceptible Escherichia coli ATCC 25922; type: functional
Cell membrane [23] = assay: Disruption of cell membrane in methicillin-resistant Staphylococcus aureus ATCC 43300 assessed as appearance of broken surface by scanning electron microscopic analysis; type: cell membranes
Staphylococcus aureus [24] = assay: Inhibition of biofilm formation in methicillin-resistant Staphylococcus aureus ATCC 43300 at 16 microg/ml relative to control; type: functional
Staphylococcus aureus [25] = assay: Antibacterial activity against methicillin-resistant Staphylococcus aureus ATCC 43300; type: functional
[26] = Selectivity index, ratio of HC50 for hemolytic activity in sheep RBC to MIC for antibacterial activity against methicillin-resistant Staphylococcus aureus ATCC 43300; type: toxicity; settings: sheep red blood cells (erythrocytes), read-out: Selectivity Index
Staphylococcus aureus [27] = assay: as §1, with “liver” for “spleen”, “7.16” for “7.45”; type: functional; settings: time 2 day
Staphylococcus aureus [28] = assay: Bactericidal activity against methicillin-resistant Staphylococcus aureus ATCC 43300 in presence of 50% human blood by Mueller Hinton broth based assay; type: functional; settings: ATCC 43300, Blood, time <= 6 hrs
Staphylococcus aureus [29] = assay: Inhibition of biofilm formation in methicillin-resistant Staphylococcus aureus ATCC 43300; type: functional, organism-based; settings: dose 2-32 µg/ml
Staphylococcus aureus [30] = assay: Antibacterial activity against erythromycin-susceptible Staphylococcus aureus ATCC 25923; type: functional
Staphylococcus aureus [31] = assay: Disruption of preformed biofilm in methicillin-resistant Staphylococcus aureus ATCC 43300 assessed as eradication of biofilm at 64 microg/ml by crystal violet staining based analysis relative to control; type: functional; settings: dose 64 µg/ml
Enterococcus faecalis = assay: Antibacterial activity against vancomycin-susceptible Enterococcus faecalis ATCC 29212; type: functional
Staphylococcus aureus [32] = assay: as §2, with “kidney” for “spleen”, “5” for “10”; type: functional; settings: time 2 day
Staphylococcus aureus [33] = assay: as §2, with “liver” for “spleen”, “5” for “10”; type: functional; settings: time 2 day
Staphylococcus aureus [34] = assay: as §2, with “liver” for “spleen”; type: functional; settings: time 2 day
Staphylococcus aureus [35] = assay: Bactericidal activity against methicillin-resistant Staphylococcus aureus ATCC 43300 assessed as reduction in bacterial growth; type: functional, organism-based

With `CCCCN(CCCC)CCCNCCCOc1c(C(C)=O)ccc2c1C=CC(C)(CCC=C(C)C)O2` (centres undefined) the Activity (Cell membrane [1]) was “Dose-Dependent Effect”, the Activity (Staphylococcus aureus [2]) was 2 log10CFU/g and the Activity (Staphylococcus aureus [3]) was 1.46 log10CFU/ml. It also gave an Activity (Staphylococcus aureus [4]) of 99.4%, an Activity (Staphylococcus aureus [5]) of 2.24 log10CFU/g and a selectivity ratio (Staphylococcus aureus [6]) of 2. It also gave an inhibition at 8 µg/mL (Staphylococcus aureus [7]) of 37.2%, an Activity (Staphylococcus aureus [8]) of 99.9% and an Activity (Staphylococcus aureus [9]) of 2.09 log10CFU/g. The Activity (Cell membrane [10]) was “Active”, the Activity (Staphylococcus aureus [11]) was 100% and the Activity (Staphylococcus aureus [12]) was 26.69%. The MIC (Bacillus subtilis) was 2 µg/mL (≈ 3.9 µM), the Activity (Cell membrane [13]) was “Active” and the Activity (Staphylococcus aureus [14]) was “Active”. For the same molecule, the HC50 [15] was 131 µg/mL, the “fold change (FC)” value (Staphylococcus aureus [16]) was 5 and the “log(activity)” value (Staphylococcus aureus [17]) was 8.35. For the same molecule, the Activity (Staphylococcus aureus [18]) was “>=99.9%”, the MIC (Acinetobacter baumannii) was 2 µg/mL (≈ 3.9 µM) and the selectivity ratio (Staphylococcus aureus [19]) was less than 2. The inhibition at 2 µg/mL (Staphylococcus aureus [20]) was 8.46%, the Activity (Staphylococcus aureus [21]) was “Active” and the Activity (Staphylococcus aureus [22]) was 2.69 log10CFU/g. The MIC (Escherichia coli) was 4 µg/mL (≈ 7.8 µM), the Activity (Cell membrane [23]) was “Active” and the inhibition at 16 µg/mL (Staphylococcus aureus [24]) was greater than 92%. For the same molecule, the MIC (Staphylococcus aureus [25]) was 2 µg/mL (≈ 3.9 µM), the selectivity ratio [26] was 65.6 and the Activity (Staphylococcus aureus [27]) was 1.98 log10CFU/g. For the same molecule, the MBC (Staphylococcus aureus [28]) was 32 µg/mL, the inhibition (Staphylococcus aureus [29]) was “Dose-Dependent Effect” and the MIC (Staphylococcus aureus [30]) was 2 µg/mL (≈ 3.9 µM). The Activity (Staphylococcus aureus [31]) was greater than 40%, the MIC (Enterococcus faecalis) was 4 µg/mL (≈ 7.8 µM) and the Activity (Staphylococcus aureus [32]) was 99.2%. The Activity (Staphylococcus aureus [33]) was 98.9%, the Activity (Staphylococcus aureus [34]) was 99.8% and the Activity (Staphylococcus aureus [35]) was “Dose-Dependent Effect”.
